For series [1], the system named is mino cells. Nature of the series: Activity test in Mino cells (CCK8 proliferation inhibition). It is filed as cell-based. Conditions: Homo sapiens, 72 h, 3 days, read-out: Cell inhibition IC50. Here is the method: Cell culture: mino cells (culture conditions: RPMI1640 medium+15% FBS, 37° C., 5% CO2). Cell plating: The cells subcultured into the logarithmic growth phase were collected and transferred into a centrifuge tube, and centrifuged at 800 rpm for 5 min. The cells were resuspended in complete medium and counted. The cells were diluted and adjusted to a final concentration of 200000 cells/mL. The cells were then seeded into a 96-well plate with 100 μL per well. Cell administration: Each group of drug solutions was added into the 96-well plate, 100 μL per well, n=3 for each drug concentration. Meanwhile, negative wells (n=6) and blank wells (n=3) were set up. The 96-well plate was incubated in the incubator for further 3 days. CCK8 reagent was added to the 96-well plate, 20 μL per well, and then the plate was placed in the incubator for further 4 h. The absorbance of the solution was measured at a wavelength of 450 nm using an enzyme reader. The proliferation inhibition rate was calculated and the half inhibitory concentration IC50 value was calculated.

Series [2] in a line: Brain tissue distribution test in mice. It is filed as in vivo. Particulars: IV 10 mg/kg; for AUC(0-inf) / AUC(0-t) / MRT / half-life: mouse; for half-life: read-out: T½ (converted). Here is the method: Mice were weighed and dosed, and about 50 μL of whole blood was collected from the orbital venous plexus at 5 min, 0.25 h, 0.5 h, 1 h, 2 h, 4 h, 6 h, 8 h, and 24 h after administration, using EDTA-K2 as anticoagulant. At the same time, the animals were euthanized, and the brains were removed, and the brain tissue samples were stored in a −80° C. refrigerator until analysis. The blood samples were centrifuged at 4000 rpm for 10 min at 4° C., and 20 μL of the supernatant plasma sample was taken into an EP tube and immediately stored in a −80° C. refrigerator until analysis. 10 μL of the plasma sample was transferred to a 96-well plate and 250 μL of acetonitrile (containing internal standard) was added to precipitate proteins. The samples were centrifuged at 4000 rpm/min for 20 min in a 4° C. centrifuge. The supernatant was transferred and injected into LC MS/MS to detect the drug concentration. The brain tissue samples were weighed and homogenized with 4 times ice-cold PBS, and 50 μL of the brain tissue homogenate was transferred to a 96-well plate. 500 μL of acetonitrile (containing internal standard) was added to precipitate the protein. The samples were centrifuged at 4000 rpm/min for 20 min in a 4° C. centrifuge. 380 μL of the supernatant was transferred to a new 96-well plate and 380 μL of 0.1% formic acid in water was added and mixed thoroughly. 10 μL of the sample was taken and injected into LC MS/MS to detect the drug concentration. The data were processed by Thermo LC Quan software, and the standard curve was established using the internal standard method, with the theoretical standard curve concentration as the abscissa and the peak area ratio as the ordinate (test compound peak area/internal standard peak area). Sample concentrations were calculated using the standard curve. The pharmacokinetic parameters were calculated using WinNonlin 8.2 software.

Series [3] concerns Mino cell xenograft. Kind of series: Activity test in Mino cell xenograft model. It is filed as in vivo, NOD SCID mice. Conditions: for Tumor volume: end of experiment, Mean ± SD.

Where two headings read alike, the source gives them in different places.

Usually IC50 stands for the midpoint of a concentration-inhibition curve. By AUC(0-inf) is commonly meant total exposure, with the tail of the curve extrapolated. Higher therefore signals more exposure. By AUC(0-t) is commonly meant exposure summed from dosing to a finite time, without extrapolation to infinity. A high value points to more exposure. As usually defined, the MRT is the average time that molecules of a dose stay in the body. Consider `COc1ccc(F)cc1C(=O)NCc1ccc(-c2nc(-c3ccc(N4CCN(CC5CCN(c6ccc(C7CCC(=O)NC7=O)cc6)CC5)CC4)cc3)n3ccnc(N)c23)cc1` (stereo not shown) [Compound I-18], for which the IC50 in series [1] was less than 25 nM. Further, the “B/P Ratio AUC (brain)/AUC (plasma)” value in series [2] was 6.86% ± 0.01. Besides, in series [2] (brain), the AUC(0-inf) was found to be 2710 ± 149 ng·h/mL, the exposure AUC(0-t) was found to be 2270 ± 126 ng·h/mL, the MRT turned out to be 7.17 ± 0.59 h and the half-life is 9.39 ± 3.04 h. Besides, in series [2] (plasma), the total exposure AUC(0-inf) was 39800 ± 4460 ng·h/mL, the area under the curve AUC(0-t) was determined as 39100 ± 5080 ng·h/mL, the MRT came to 4.88 ± 0.14 h and the half-life was 4.44 ± 1.38 h.
As to `COc1ccc(F)cc1C(=O)NCc1ccc(-c2nc(-c3ccc(N4CCN(CC5CCN(c6ccc(N7CCC(=O)NC7=O)c(C)c6)CC5)CC4)cc3)n3ccnc(N)c23)cc1` [Compound I-40], in series [1], the IC50 is less than 25 nM. Besides, in series [3] (30 mg/kg), the “TGITV (Relative tumor volume inhibition rate)” value turned out to be 76.65% and the Tumor volume amounted to 1146.34 ± 435.82 mm^3.
With `COc1ccc(F)cc1C(=O)NCc1ccc(-c2nn(-c3ccc(N4CCC(CN5CCN(c6ccc7c(c6)C(=O)N(C6CCC(=O)NC6=O)C7)CC5)CC4)nc3)c3ncnc(N)c23)cc1` (stereo not shown) [II-4, N-(4-(4-amino-1-(6-(4-((4-(2-(2,6-dioxopiperidin-3-yl)-3-oxoisoindolin-5-yl)piperazin-1-yl)methyl)piperidin-1-yl)pyridin-3-yl)-1H-pyrazolo[3,4-d]pyrimidin-3-yl)benzyl)-5-fluoro-2-methoxybenzamide], the IC50 in series [1] was determined as 12 nM.
Still for that read-out and setting: the same measure for `COc1ccc(F)cc1C(=O)NCc1ccc(-c2nn(-c3ccc(N4CCN(CC5CCN(c6ccc7c(c6)CN(C6CCC(=O)NC6=O)C7=O)CC5)CC4)nc3)c3ncnc(N)c23)cc1F` (stereo not shown) [II-5, N-(4-(4-amino-1-(6-(4-((1-(2-(2,6-dioxopiperidin-3-yl)-1-oxoisoindolin-5-yl)piperidin-4-yl)methyl)piperazin-1-yl)pyridin-3-yl)-1H-pyrazolo[3,4-d]pyrimidin-3-yl)-2-fluorobenzyl)-5-fluoro-2-methoxybenzamide]: 9 nM; for `COc1ccc(F)cc1C(=O)NCc1ccc(-c2nn(-c3ccc(N4CCN(CC5CCN(c6ccc7c(c6)C(=O)N(C6CCC(=O)NC6=O)C7=O)CC5)CC4)nc3)c3ncnc(N)c23)cc1C` (stereo not shown) [II-6, N-(4-(4-amino-1-(6-(4-((1-(2-(2,6-dioxopiperidin-3-yl)-1,3-dioxoisoindol-5-yl)piperidin-4-yl)methyl)piperazin-1-yl)pyridin-3-yl)-1H-pyrazolo[3,4-d]pyrimidin-3-yl)-2-methylbenzyl)-5-fluoro-2-methoxybenzamide]: 21 nM.
On the same count and under the same terms, then `COc1ccc(F)cc1C(=O)NCc1ccc(-c2nn(-c3ccc(C4CCN(CC5CCN(c6ccc7c(c6)C(=O)N(C6CCC(=O)NC6=O)C7=O)CC5)CC4)nc3)c3ncnc(N)c23)cc1` (stereo not shown) [II-7, N-(4-(4-amino-1-(6-(1-((1-(2-(2,6-dioxopiperidin-3-yl)-1,3-dioxoisoindolin-5-yl)piperidin-4-yl)methyl)piperidin-4-yl)pyridin-3-yl)-1H-pyrazolo[3,4-d]pyrimidin-3-yl)benzyl)-5-fluoro-2-methoxybenzamide], with 18 nM; and `COc1ccc(F)cc1C(=O)NCc1ccc(-c2nn(-c3ccc(N4CCN(CC5CCN(c6ccc7c(c6)C(=O)N(C6CCC(=O)NC6=O)C7)CC5)CC4)cc3)c(N)c2C(N)=O)cc1` (stereo not shown) [II-10], with less than 25 nM.
On the same count and under the same terms, the same measure for `COc1ccc(F)cc1C(=O)NCc1ccc(-c2nn(-c3ccc(N4CCN(CC5CCN(c6ccc7c(c6)CN(C6CCC(=O)NC6=O)C7=O)CC5)CC4)nc3)c3ccnc(N)c23)cc1` (stereo not shown) [II-12, N-(4-(4-amino-1-(6-(4-((1-(2-(2,6-dioxopiperidin-3-yl)-1-oxoisoindol-5-yl)piperidin-4-yl)methyl)piperazin-1-yl)pyridin-3-yl)-1H-pyrazolo[4,3-c]pyridin-3-yl)benzyl)-5-fluoro-2-methoxybenzamide]: less than 500 nM.
Turning to `COc1ccc(F)cc1C(=O)NCc1ccc(-n2c(=O)n(-c3ccc(N4CCN(CC5CCN(c6ccc7c(c6)CN(C6CCC(=O)NC6=O)C7=O)CC5)CC4)cc3)c3ccnc(N)c32)cc1` (stereo not shown) [II-24, N-(4-(4-amino-1-(4-(-4-((1-(2-(2,6-dioxopiperidin-3-yl)-1-oxoisoindol-5-yl)piperidin-4-yl)methyl)piperazin-1-yl)phenyl)-2-oxo-1,2-dihydro-3H-imidazo[4,5-c]pyridin-3-yl)benzyl)-5-fluoro-2-methoxybenzamide], in series [1], the IC50 is less than 50 nM.
Same read-out and setting: then `COc1ccc(F)cc1C(=O)NCc1ccc(-c2nn(-c3ccc(N4CCN(CC5CCN(c6ccc7c(c6)C(=O)N(C6CCC(=O)NC6=O)C7)CC5)CC4)nc3)c(N)c2C(N)=O)cc1` (stereo not shown) [II-34, 5-amino-1-(6-(4-((1-(2-(2,6-dioxopiperidin-3-yl)-3-oxoisoindolin-5-yl)piperidin-4-yl)methyl)piperazin-1-yl)pyridin-3-yl)-4-(((5-fluoro-2-methoxybenzamido)methyl)phenyl)-1H-pyrazole-4-carboxamide], with less than 25 nM.
Same read-out and setting: then `Nc1ncnc2c1c(-c1ccc(Oc3ccccc3)cc1)nn2-c1ccc(N2CCC(CN3CCN(c4ccc5c(c4)C(=O)N(C4CCC(=O)NC4=O)C5=O)CC3)CC2)nc1` (stereo not shown) [II-37, 5-(4-((1-(5-(4-amino-3-(4-phenoxyphenyl)-1H-pyrazolo[3,4-d]pyrimidin-1-yl)pyridin-2-yl)piperidin-4-yl)methyl)piperazin-1-yl)-2-(2,6-dioxopiperidin-3-yl) isoindoline-1,3-dione], with less than 25 nM; and `COc1ccc(F)cc1C(=O)NCc1ccc(-c2nn(-c3ccc(N4CCN(CC5CCN(c6ccc7c(c6)CN(C6CCC(=O)NC6=O)C7=O)CC5)C[C@@H]4C)nc3)c3ncnc(N)c23)cc1` (stereo partly drawn) [II-38, N-(4-(4-amino-1-(6-((2S)-4-((1-(2-(2,6-dioxopiperidin-3-yl)-1-oxoisoindol-5-yl)piperidin-4-yl)methyl)-2-methylpiperazin-1-yl)pyridin-3-yl)-1H-pyrazolo[3,4-d]pyrimidin-3-yl)benzyl)-5-fluoro-2-methoxybenzamide], with less than 25 nM.
Same read-out and setting: then `COc1ccc(F)cc1C(=O)NCc1ccc(-c2nn(-c3ccc(C4CCN(CC5CCN(c6ccc7c(c6)C(=O)N(C6CCC(=O)NC6=O)C7)CC5)CC4)cc3)c(N)c2C(N)=O)cc1` (stereo not shown) [II-39], with less than 25 nM; and `Nc1ncnc2c1c(-c1ccc(Oc3ccccc3)cc1)nn2-c1ccc(N2CCN(C[C@@H]3CCCC[C@H]3CN3CCN(c4ccc5c(c4)CN(C4CCC(=O)NC4=O)C5=O)CC3)CC2)nc1` (stereo partly drawn) [III-19, 3-(5-(4-(((1R,2R)-2-((4-(5-(4-amino-3-(4-phenoxyphenyl)-1H-pyrazolo[3,4-d]pyrimidin-1-yl)pyridin-2-yl)piperazin-1-yl)methyl)cyclohexyl)methyl)piperazin-1-yl)-1-oxoisoindolin-2-yl)piperidine-2,6-dione], with less than 100 nM.
For the compound `Cc1cc(N2CCN(C[C@@H]3CCCC[C@H]3CN3CCN(c4ccc(-n5nc(-c6ccc(Oc7ccccc7)cc6)c6c(N)ncnc65)cn4)CC3)CC2)ccc1N1CCC(=O)NC1=O` [III-20, 1-(4-(4-(((1R,2R)-2-((4-(5-(4-amino-3-(4-phenoxyphenyl)-1H-pyrazolo[3,4-d]pyrimidin-1-yl)pyridin-2-yl)piperazin-1-yl)methyl)cyclohexyl)methyl)piperazin-1-yl)-2-methylphenyl)dihydropyrimidine-2,4(1H,3H)-dione], the concentration for half-maximal inhibition (IC50) in series [1] was less than 500 nM.
For `C=CC(=O)N1CCC[C@@H](n2nc(-c3ccc(Oc4ccccc4)cc3)c3c(N)ncnc32)C1` [Ibrutinib, ibrutinib, reference compound], in series [3] (50 mg/kg), the “TGITV (Relative tumor volume inhibition rate)” value stood at 40.73% and the Tumor volume was found to be 3018.11 ± 1293.65 mm^3.

(Values after US20260248784A1, “BTK Degrader and Use Thereof” (JIANGSU VCARE PHARMATECH CO., LTD., priority 2023, published 2026).)
